Here are results for two compounds from US9808469B2, “Antitumor activity of multi-kinase inhibitors in triple negative breast cancer” (ENTRECHEM, S.L, priority 2014, dated 2017).

Type in all cases: cell-based
The test system of data set [1] is MDA-MB-231 cells. The data set can be described thus: MTT metabolization, inhibition of MDA-MB-231 cell proliferation. The protocol: (§1) These triple negative breast cancer cell lines were obtained from the American Type Culture Collection Cell Biology Collection (ATCC) (Manassas, Va.). The medium was changed every 2 days.
(§2) Cell proliferation and growth experiments were carried out using 3-(4,5-dimethylthiazol-2-yl)-2,5-diphenyltetrazolium bromide (MTT) uptake assays, where MTT is reduced to purple formazan by the mitochondria of living cells. Increase in cell number is detected by augmented MTT metabolization, and decrease in cell number is reflected by a decrease. […] The cells were treated with the drug at different concentrations to plot the dose-response curves in all cancer cell lines using in the study. […] After treatment, each well was replaced with 250 μL of fresh medium containing MTT ([…]) and incubated for 1 hour. The medium was then removed and 500 μL of dimethyl sulfoxide was added to each well. The plate was agitated in the dark for 5 minutes to dissolve the MTT-formazan crystals. The absorbance of the samples was recorded at 562 nm in a multi-well plate reader (BMG labtech). Results were plotted as the mean values of quadruplicates from a representative experiment that was repeated at least two independent times.
(§3) Combination index values less than 1 indicate synergism, values equal to 1 indicate an additive effect, whereas values greater than 1 indicate antagonism. Combination index values from three independent experiments were generated.

For data set [2], the system named is BT-549 cells. The data set can be described thus: MTT metabolization, inhibition of BT-549 cell proliferation. The protocol: as §1, §2, §3
Data set [3] relates to HS578T cells. The data set can be described thus: MTT metabolization, inhibition of HS578T cell proliferation. The protocol: as §1, §2, §3

Turning to `N.N.O=C([O-])C1(C(=O)[O-])CCC1.[Pt+2]` [Carboplatin, carboplatin, reference compound], the “Percentage inhibition Carboplatin mean” value is recorded as 74.70% in data set [1] (Carboplatin 80 nM alone); 62.30% in data set [1] (Carboplatin 120 nM alone); 61.11% in data set [1] (Carboplatin 160 nM alone); 58.21% in data set [1] (Carboplatin 200 nM alone); 37.09% in data set [2] (Carboplatin 80 nM alone); 21.43% in data set [2] (Carboplatin 120 nM alone). In addition, the “Percentage inhibition Carboplatin mean” value is recorded as 19.39% in data set [2] (Carboplatin 160 nM alone); 15.69% in data set [2] (Carboplatin 200 nM alone); 70.90% in data set [3] (Carboplatin 80 nM alone); 60.26% in data set [3] (Carboplatin 120 nM alone); 50.49% in data set [3] (Carboplatin 160 nM alone); 24.33% in data set [3] (Carboplatin 200 nM alone).

As to `CC(=O)O[C@@]12CO[C@@H]1C[C@H](O)[C@@]1(C)C(=O)[C@H](O)C3=C(C)[C@@H](OC(=O)[C@H](O)[C@@H](NC(=O)OC(C)(C)C)c4ccccc4)C[C@@](O)([C@@H](OC(=O)c4ccccc4)[C@H]21)C3(C)C` [Docetaxel, docetaxel, reference compound], the viability at 0.0004 µM in data set [1] (Homo sapiens, MDA-MB-231, Docetaxel 0.4 nM alone, read-out: Percentage inhibition Docetaxel mean) is 59.3%. The viability at 0.0008 µM in data set [1] (Homo sapiens, MDA-MB-231, Docetaxel 0.8 nM alone, read-out: Percentage inhibition Docetaxel mean) was found to be 33.8%. The viability at 0.0012 µM in data set [1] (Homo sapiens, MDA-MB-231, Docetaxel 1.2 nM alone, read-out: Percentage inhibition Docetaxel mean) stood at 25.3%. Besides, the viability at 0.0016 µM in data set [1] (Homo sapiens, MDA-MB-231, Docetaxel 1.6 nM alone, read-out: Percentage inhibition Docetaxel mean) worked out at 25.3%. The inhibition at 0.0004 µM in data set [2] (Homo sapiens, BT-549, Docetaxel 0.4 nM alone, read-out: Percentage inhibition Docetaxel mean) turned out to be 82%. Moreover, in data set [2] (Homo sapiens, BT-549, Docetaxel 0.8 nM alone, read-out: Percentage inhibition Docetaxel mean), the inhibition at 0.0008 µM was 36.1%. For the same compound, the inhibition at 0.0012 µM in data set [2] (Homo sapiens, BT-549, Docetaxel 1.2 nM alone, read-out: Percentage inhibition Docetaxel mean) is 36.5%. For the same compound, the inhibition at 0.0016 µM in data set [2] (Homo sapiens, BT-549, Docetaxel 1.6 nM alone, read-out: Percentage inhibition Docetaxel mean) stood at 36.1%. Further, the percent inhibition of cell proliferation at 0.0004 µM in data set [3] (Homo sapiens, Hs-578T, Docetaxel 0.4 nM alone, read-out: Percentage inhibition Docetaxel mean) was found to be 73%. Moreover, the percent inhibition of cell proliferation at 0.0008 µM in data set [3] (Homo sapiens, Hs-578T, Docetaxel 0.8 nM alone, read-out: Percentage inhibition Docetaxel mean) was 49.6%. Besides, the percent inhibition of cell proliferation at 0.0012 µM in data set [3] (Homo sapiens, Hs-578T, Docetaxel 1.2 nM alone, read-out: Percentage inhibition Docetaxel mean) came to 45.8%. Also, the percent inhibition of cell proliferation at 0.0016 µM in data set [3] (Homo sapiens, Hs-578T, Docetaxel 1.6 nM alone, read-out: Percentage inhibition Docetaxel mean) is 47.9%.

A word on the inhibition: it is the relative decrease from the control value, in per cent.
